# According to patent publication US20170037028A1 (BAYER PHARMA AKTIENGESELLSCHAFT, priority 2013, published 2017):
# Target: T1, GLUT1 (Homo sapiens, UniProt P11166)
# T1 sequence (P11166 1-492): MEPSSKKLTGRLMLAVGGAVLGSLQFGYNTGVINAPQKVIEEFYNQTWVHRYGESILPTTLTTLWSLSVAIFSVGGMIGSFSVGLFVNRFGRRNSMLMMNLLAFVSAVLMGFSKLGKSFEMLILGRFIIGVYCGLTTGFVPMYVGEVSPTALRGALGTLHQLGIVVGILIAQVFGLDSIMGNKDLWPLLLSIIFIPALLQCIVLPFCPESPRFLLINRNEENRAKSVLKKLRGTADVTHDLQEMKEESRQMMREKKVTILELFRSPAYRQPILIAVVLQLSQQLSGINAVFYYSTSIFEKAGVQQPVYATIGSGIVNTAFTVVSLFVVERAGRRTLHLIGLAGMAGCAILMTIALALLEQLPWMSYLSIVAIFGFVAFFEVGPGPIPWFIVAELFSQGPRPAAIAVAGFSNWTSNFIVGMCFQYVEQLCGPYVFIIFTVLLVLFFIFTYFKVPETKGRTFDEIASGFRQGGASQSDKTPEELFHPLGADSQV
# Assay: Indirect measurement of GLUT1 activity by quantification of intracellular ATP levels (glucose induced ATP increase)
# Assay type: cell-based
# Set-up: endogenous in cells; host or cells: DLD1 or CHO-K1
# Settings: read-out: IC50 regarding glucose induced ATP increase (GLUT1 inhibition)
# Summary of the method: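 Intracellular ATP was measured by CellTiter-Glo luminescence as an indirect readout of transport: glucose-driven for GLUT1, fructose-driven for GLUT2. DLD1 or CHO-K1 cells were used alongside an oxidative phosphorylation inhibitor. Beforehand, cells were held overnight in glucose-free 1% FCS medium to deplete ATP.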
row,IC50,SMILES
1,19.8 nM,"CCc1c(NC(=O)c2cc(C(N)=O)nc3cccc(F)c23)c(C(F)(F)F)nn1Cc1ccc(C#N)cc1 [Example 316, N^4-[1-(4-cyanobenzyl)-5-ethyl-3-(trifluoromethyl)-1H-pyrazol-4-yl]-5-fluoroquinoline-2,4-dicarboxamide]"
2,1050 nM,"CC(C)c1c(NC(=O)c2cc(C(N)=O)nc3ccccc23)c(C(F)(F)F)nn1Cc1ccc(C#N)cc1 [Example 317, N^4-[1-(4-cyanobenzyl)-5-isopropyl-3-(trifluoromethyl)-1H-pyrazol-4-yl]quinoline-2,4-dicarboxamide]"
3,352 nM,"CC(C)c1c(NC(=O)c2cc(C(N)=O)nc3cc(F)ccc23)c(C(F)(F)F)nn1Cc1ccc(C#N)cc1 [Example 318, N^4-[1-(4-cyanobenzyl)-5-isopropyl-3-(trifluoromethyl)-1H-pyrazol-4-yl]-7-fluoroquinoline-2,4-dicarboxamide]"
4,1 nM,"CC(C)c1nn(Cc2ccc(C#N)cc2)c(C(F)(F)F)c1NC(=O)c1cc(C(N)=O)nc2ccccc12 [Example 319, N^4-[1-(4-cyanobenzyl)-3-isopropyl-5-(trifluoromethyl)-1H-pyrazol-4-yl]quinoline-2,4-dicarboxamide]"
5,8 nM,"CC(C)c1nn(Cc2ccc(C#N)cc2)c(C(F)(F)F)c1NC(=O)c1cc(C(N)=O)nc2cc(F)ccc12 [Example 320, N^4-[1-(4-cyanobenzyl)-3-isopropyl-5-(trifluoromethyl)-1H-pyrazol-4-yl]-7-fluoroquinoline-2,4-dicarboxamide]"
6,7.2 nM,"Cc1c(NC(=O)c2cc(C(N)=O)nc3cc(F)ccc23)c(C(C)C)nn1Cc1ccc(C#N)cc1 [Example 321, N^4-[1-(4-cyanobenzyl)-3-isopropyl-5-methyl-1H-pyrazol-4-yl]-7-fluoroquinoline-2,4-dicarboxamide]"
7,1.9 nM,"Cc1c(NC(=O)c2cc(C(N)=O)nc3ccccc23)c(C(C)C)nn1Cc1ccc(C#N)cc1 [Example 322, N^4-[1-(4-cyanobenzyl)-3-isopropyl-5-methyl-1H-pyrazol-4-yl]quinoline-2,4-dicarboxamide]"
8,39.4 nM,"Cc1nn(Cc2ccc(C#N)cc2)c(C(C)C)c1NC(=O)c1cc(C(N)=O)nc2ccccc12 [Example 323, N^4-[1-(4-cyanobenzyl)-5-isopropyl-3-methyl-1H-pyrazol-4-yl]quinoline-2,4-dicarboxamide]"
9,1.9 nM,"Cc1c(NC(=O)c2cc(C(N)=O)nc3cc(F)c(Cl)cc23)c(C(C)C)nn1Cc1ccc(C#N)cc1 [Example 324, 6-chloro-N^4-[1-(4-cyanobenzyl)-3-isopropyl-5-methyl-1H-pyrazol-4-yl]-7-fluoroquinoline-2,4-dicarboxamide]"
10,3.9 nM,"CCc1nn(Cc2ccc(C#N)cc2)c(C)c1NC(=O)c1cc(C(N)=O)nc2ccccc12 [Example 325, N^4-[1-(4-cyanobenzyl)-3-ethyl-5-methyl-1H-pyrazol-4-yl]quinoline-2,4-dicarboxamide]"
11,14.3 nM,"CCc1c(NC(=O)c2cc(C(N)=O)nc3ccccc23)c(C)nn1Cc1ccc(C#N)cc1 [Example 326, N^4-[1-(4-cyanobenzyl)-5-ethyl-3-methyl-1H-pyrazol-4-yl]quinoline-2,4-dicarboxamide]"
12,3.7 nM,"CCc1nn(Cc2ccc(C#N)cc2)c(C)c1NC(=O)c1cc(C(N)=O)nc2cc(F)ccc12 [Example 327, N^4-[1-(4-cyanobenzyl)-3-ethyl-5-methyl-1H-pyrazol-4-yl]-7-fluoroquinoline-2,4-dicarboxamide]"
13,290 nM,"Cc1c(NC(=O)c2cc(C(=O)NCCCO)nc3cc(F)ccc23)c(C(F)(F)F)nn1Cc1ccc(C#N)cc1 [Example 341, N^4-[1-(4-cyanobenzyl)-5-methyl-3-(trifluoromethyl)-1H-pyrazol-4-yl]-7-fluoro-N^2-(3-hydroxypropyl)quinoline-2,4-dicarboxamide]"
14,336 nM,"Cc1c(NC(=O)c2cc(C(=O)NCCN3CCOCC3)nc3cc(F)ccc23)c(C(F)(F)F)nn1Cc1ccc(C#N)cc1 [Example 342, N^4-[1-(4-cyanobenzyl)-5-methyl-3-(trifluoromethyl)-1H-pyrazol-4-yl]-7-fluoro-N^2-[2-(morpholin-4-yl)ethyl]quinoline-2,4-dicarboxamide]"
15,0.7 nM,"Cc1cc2c(C(=O)Nc3c(C(F)(F)F)nn(Cc4ccc(C#N)cc4)c3C)cc(C(N)=O)nc2cc1F [Example 343, N^4-[1-(4-cyanobenzyl)-5-methyl-3-(trifluoromethyl)-1H-pyrazol-4-yl]-7-fluoro-6-methylquinoline-2,4-dicarboxamide]"
16,5.8 nM,"COCCNc1ccc2nc(C(N)=O)cc(C(=O)Nc3c(C(F)(F)F)nn(Cc4ccc(C#N)cc4)c3C)c2c1 [Example 344, N^4-[1-(4-cyanobenzyl)-5-methyl-3-(trifluoromethyl)-1H-pyrazol-4-yl]-6-[(2-methoxyethyl)amino]quinoline-2,4-dicarboxamide]"
17,7.2 nM,"Cc1c(NC(=O)c2cc(C(N)=O)nc3ccc(N4CCCCC4)cc23)c(C(F)(F)F)nn1Cc1ccc(C#N)cc1 [Example 345, N^4-[1-(4-cyanobenzyl)-5-methyl-3-(trifluoromethyl)-1H-pyrazol-4-yl]-6-(piperidin-1-yl)quinoline-2,4-dicarboxamide]"
18,0.6 nM,"Cc1nn(CCCc2ccc(C#N)cc2)c(C)c1NC(=O)c1cc(C(N)=O)nc2cc(F)c(Cl)cc12 [Example 346, 6-chloro-N^4-{1-[3-(4-cyanophenyl)propyl]-3,5-dimethyl-1H-pyrazol-4-yl}-7-fluoroquinoline-2,4-dicarboxamide]"
19,2.2 nM,"Cc1nn(CCCc2ccc(C#N)cc2)c(C)c1NC(=O)c1cc(C(N)=O)nc2ccccc12 [Example 347, N^4-{1-[3-(4-cyanophenyl)propyl]-3,5-dimethyl-1H-pyrazol-4-yl}quinoline-2,4-dicarboxamide]"
20,6.1 nM,"Cc1nn(CCCc2ccc(C#N)cc2)c(C)c1NC(=O)c1cc(C(F)(F)F)nc2ccc(Br)cc12 [Example 348, 6-bromo-N-{1-[3-(4-cyanophenyl)propyl]-3,5-dimethyl-1H-pyrazol-4-yl}-2-(trifluoromethyl)quinoline-4-carboxamide]"
21,15.7 nM,"COc1cc(C(=O)Nc2c(C)nn(CCCc3ccc(C#N)cc3)c2C)c2ccccc2n1 [Example 349, N-{1-[3-(4-cyanophenyl)propyl]-3,5-dimethyl-1H-pyrazol-4-yl}-2-methoxyquinoline-4-carboxamide]"
22,1.1 nM,"Cc1nn(Cc2ccc(C#N)cn2)c(C)c1NC(=O)c1cc(C(N)=O)nc2ccc(Br)cc12 [Example 350, 6-bromo-N^4-{1-[(5-cyanopyridin-2-yl)methyl]-3,5-dimethyl-1H-pyrazol-4-yl}quinoline-2,4-dicarboxamide]"
23,1.6 nM,"Cc1nn(Cc2ccc(C#N)cn2)c(C)c1NC(=O)c1cc(C(N)=O)nc2cc(F)c(Cl)cc12 [Example 351, 6-chloro-N^4-{1-[(5-cyanopyridin-2-yl)methyl]-3,5-dimethyl-1H-pyrazol-4-yl}-7-fluoroquinoline-2,4-dicarboxamide]"

row,SMILES,IC50
1,"Cc1c(NC(=O)c2cc(C(N)=O)nc3c(Cl)cccc23)c(C(F)(F)F)nn1Cc1ccc(C#N)cc1 [Example 338, 8-chloro-N^4-[1-(4-cyanobenzyl)-5-methyl-3-(trifluoromethyl)-1H-pyrazol-4-yl]quinoline-2,4-dicarboxamide]",2.7 nM
